# Inconclusive results and toxic doses are left out.
# Tested on: BDF1 mice, P388 leukemia ip, median survival T/C
# Experiment: NCI In Vivo Anticancer Drug Screen. Data for tumor model P388 Leukemia (intraperitoneal) in B6D2F1 (BDF1) mice
# Conditions: endpoint: median survival time, higher = longer survival
# Method in brief: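 Survival ratio, drug arm over vehicle arm, in mice with a transplanted tumour.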
# [1] = dose: 50.0 mg/kg/injection, schedule: Q01DX009 (ip), vehicle: saline with Tween-80
# [2] = dose: 100.0 mg/kg/injection, schedule: Q01DX009 (ip), vehicle: saline with Tween-80
# [3] = dose: 200.0 mg/kg/injection, schedule: Q01DX009 (ip), vehicle: saline with Tween-80
# [4] = dose: 400.0 mg/kg/injection, schedule: Q01DX009 (ip), vehicle: saline with Tween-80
# [5] = dose: 100.0 mg/kg/injection, schedule: Q04DX003 (ip), vehicle: saline with Tween-80
# [6] = dose: 200.0 mg/kg/injection, schedule: Q04DX003 (ip), vehicle: saline with Tween-80
# [7] = dose: 400.0 mg/kg/injection, schedule: Q04DX003 (ip), vehicle: saline with Tween-80
# [8] = dose: 200.0 mg/kg/injection, schedule: Q04DX003 (ip), vehicle: saline sonified
# [9] = dose: 400.0 mg/kg/injection, schedule: Q04DX003 (ip), vehicle: saline sonified
# [10] = dose: 100.0 mg/kg/injection, schedule: Q01DX009 (ip), vehicle: Klucel (hydroxypropylcellulose) (HPC)
smiles,measurement,setting,value
Nc1ccc2c(c1)Cc1cc(Br)ccc1-2,T/C,"dose: 100.0 mg/kg/injection, schedule: Q04DX003 (ip), vehicle: Klucel (hydroxypropylcellulose) (HPC)",104 % of control
same,T/C,"dose: 200.0 mg/kg/injection, schedule: Q04DX003 (ip), vehicle: Klucel (hydroxypropylcellulose) (HPC)",100 % of control
same,T/C,"dose: 400.0 mg/kg/injection, schedule: Q04DX003 (ip), vehicle: Klucel (hydroxypropylcellulose) (HPC)",100 % of control
O=C(NC(=S)N1CCOCC1)c1ccccc1,T/C,[1],100 % of control
same,T/C,[2],90 % of control
same,T/C,[3],100 % of control
same,T/C,[4],97 % of control
Cc1cc(Cl)c(C)c(Cl)c1Cl,T/C,[2],90 % of control
same,T/C,[3],95 % of control
same,T/C,[4],86 % of control
O=S(=O)(O)O.[W],T/C,"dose: 0.75 mg/kg/injection, schedule: Q01DX009 (ip), vehicle: saline",96 % of control
same,T/C,"dose: 3.0 mg/kg/injection, schedule: Q01DX009 (ip), vehicle: saline",90 % of control
CC(C)C(Br)C(=O)NC(Cc1ccccc1)C(=O)O (stereo not given),T/C,[5],109 % of control
same,T/C,[6],100 % of control
same,T/C,[7],95 % of control
CC(O)C(F)(F)C(F)(F)C(F)(F)C(C)O (stereo not given),T/C,"dose: 50.0 mg/kg/injection, schedule: Q01DX009 (ip), vehicle: saline",90 % of control
same,T/C,"dose: 100.0 mg/kg/injection, schedule: Q01DX009 (ip), vehicle: saline",104 % of control
same,T/C,"dose: 100.0 mg/kg/injection, schedule: Q04DX003 (ip), vehicle: saline sonified",116 % of control
same,T/C,"dose: 200.0 mg/kg/injection, schedule: Q01DX009 (ip), vehicle: saline",104 % of control
same,T/C,[8],94 % of control
same,T/C,[9],116 % of control
CC(=O)OCCCC/C(=C/c1cc2ccccc2c2ccccc12)[N+](=O)[O-],T/C,"dose: 50.0 mg/kg/injection, schedule: Q01DX009 (ip), vehicle: Klucel (hydroxypropylcellulose) (HPC)",100 % of control
same,T/C,[10],100 % of control
C#CC(C)OCC1CNC(=S)O1 (stereo not given),T/C,"dose: 50.0 mg/kg/injection, schedule: Q04DX003 (ip), vehicle: saline with Tween-80",110 % of control
same,T/C,[5],100 % of control
same,T/C,[6],115 % of control
same,T/C,[7],110 % of control
CCCCCSc1nc(N)nc2nc[nH]c12,T/C,[10],118 % of control
same,T/C,"dose: 100.0 mg/kg/injection, schedule: Q04DX003 (ip), vehicle: other",100 % of control
same,T/C,"dose: 200.0 mg/kg/injection, schedule: Q01DX009 (ip), vehicle: Klucel (hydroxypropylcellulose) (HPC)",95 % of control
same,T/C,"dose: 200.0 mg/kg/injection, schedule: Q04DX003 (ip), vehicle: other",100 % of control
same,T/C,"dose: 400.0 mg/kg/injection, schedule: Q04DX003 (ip), vehicle: other",94 % of control
O=c1c2oc3ccccc3c2cnn1CO,T/C,[2],90 % of control
same,T/C,[3],116 % of control
COC(=O)C(N)CCCCNc1ccc2c(cc1=O)C(NC(C)=O)CCc1cc(OC)c(OC)c(OC)c1-2 (stereo not given),T/C,"dose: 26.0 mg/kg/injection, schedule: Q01DX009 (ip), vehicle: saline with Tween-80",124 % of control
same,T/C,"dose: 40.0 mg/kg/injection, schedule: Q01DX009 (ip), vehicle: saline with Tween-80",118 % of control
same,T/C,"dose: 60.0 mg/kg/injection, schedule: Q01DX009 (ip), vehicle: saline with Tween-80",119 % of control
same,T/C,"dose: 90.0 mg/kg/injection, schedule: Q01DX009 (ip), vehicle: saline with Tween-80",117 % of control
same,T/C,[3],170 % of control
same,T/C,"dose: 300.0 mg/kg/injection, schedule: Q01DX009 (ip), vehicle: saline with Tween-80",159 % of control
CC(=O)c1cc(C)[nH]c1C,T/C,[8],115 % of control
same,T/C,[9],100 % of control
C=CC12COC(=O)C(=C)C1C(O)C(C(=C)C(=O)OC)C(O)C2 (stereo not given),T/C,"dose: 0.5 mg/kg/injection, schedule: Q01DX010 (ip), vehicle: steriod suspending solution",100 % of control
same,T/C,"dose: 1.0 mg/kg/injection, schedule: Q01DX010 (ip), vehicle: steriod suspending solution",109 % of control
same,T/C,"dose: 2.0 mg/kg/injection, schedule: Q01DX010 (ip), vehicle: steriod suspending solution",100 % of control
same,T/C,"dose: 4.0 mg/kg/injection, schedule: Q01DX010 (ip), vehicle: steriod suspending solution",122 % of control
same,T/C,"dose: 10.0 mg/kg/injection, schedule: Q01DX010 (ip), vehicle: steriod suspending solution",109 % of control
CC(=O)OC1OC(CSC(=N)N)C(OC(C)=O)C(OC(C)=O)C1OC(C)=O (stereo not given),T/C,[1],116 % of control
same,T/C,[2],119 % of control
same,T/C,[3],110 % of control

# Source: PubChem BioAssay AID328 (DTP/NCI, 2004)
